The record followed here is patent publication US20070048377A1, “Drug compositions containing controlled release hypromellose matrices” (priority 2005, published 2007).

Where a name gives a salt, the structure may show the parent alone.

Series [1] in a line: Viscosity investigation (Brookfield viscometer DV-II+). It is filed as physicochemical. An excerpt: • a. Dispersion Characterization • PVAP, HPMC, or Verapamil HCl was dispersed in 0.1N HCl or phosphate buffer, pH 6.8. Viscosity was characterized neat and in binary or tertiary mixtures. • b. Dry Blending Mixtures Characterization • i.
A short description of series [2]: Verapamil Hydrochloride and PVAP chemical interaction (precipitate on combining saturated methanol solutions). It is filed as physicochemical. The conditions noted are these: 50 grams of each combined. An excerpt:
To determine that the influence on the drug release is not due to the chemical interaction between Verapamil HCL and PVAP, following investigation was made.
• a. Purpose—To determine if change in drug release is due to polymer drug interaction, where increasing PVAP would potentially cause decreased drug release due to binding with the drug. • b. Method— • i. Dissolved 20 grams of Verapamil Hydrochloride in 52 grams of methanol to form a saturated solution. • ii. Dissolved 10 grams of PVAP in 52 grams of methanol to form a saturated solution. • iii. A clear solution was obtained for each sample. • iv. 50 grams of each solution was combined and examined for the presence of a precipitate. • v. […] Conclusion • A lack of chemical interaction has been shown between PVAP and the drug which is contra to some of previously published studies on the interactions of Verapamil HCl with enteric polymers. It also rules out that the reduction of drug release by using PVAP is due to a chemical interaction with Verapamil HCl.

Take `COc1ccc(CCN(C)CCCC(C#N)(c2ccc(OC)c(OC)c2)C(C)C)cc1OC` (stereo not drawn) [Verapamil HCl - 48% solution, Verapamil Hydrochloride]: the Viscosity stood at 50.8 cP in series [1] (0.1N HCl) and 12.4 cP in series [1] (Phosphate Buffer, pH 6.8). In series [2], the “presence of a precipitate (chemical interaction with PVAP)” value is listed as “no precipitate formed”.
